# Experimental data reported in patent publication US20240262845A1, “PYRIDINIUM SALTS, METHODS OF MAKING, AND METHODS OF USE” (UNIVERSITY OF WYOMING, priority 2023, published 2024).
# Structures can show the parent of a compound that is named as a salt.
# Key:
# [1] = biological target: T1, lysozyme (Gallus gallus, UniProt P00698); assay: Photochemical labeling of lysozyme with pyridinium salts (General Procedure B, LC/MS); type: biochemical, chicken; details: lysozyme labeling
# T1 construct: Lysozyme (from chicken egg white, >40,000 units/mg of protein); purchased Sigma Aldrich; host or cells: chicken egg white
# T1 sequence (P00698 19-147): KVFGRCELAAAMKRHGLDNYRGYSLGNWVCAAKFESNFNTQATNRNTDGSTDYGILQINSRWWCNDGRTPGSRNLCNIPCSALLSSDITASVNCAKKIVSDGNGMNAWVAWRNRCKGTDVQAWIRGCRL
# Procedure: General Procedure B: Photochemical Irradiation of Peptides and Proteins: To a 2 mL Pyrex LC/MS vial (Thermo model #03-391-39) were sequentially added solutions containing the desired biomolecule, glutathione (GSH), pyridinium salt, and ammonium acetate (NH4OAc). The resulting solution was diluted to a final volume of 500 μL and then sparged using nitrogen for a minimum of 30 minutes prior to irradiation. The actively sparging solution was then placed in an EvoluChem™ PhotoRedOx Box photoreactor that was equipped with a Kessil, PR160 427 nm LED Lamp and was then irradiated (100% lamp intensity) for the designated time at room temperature while maintaining active sparging. The resultant reaction mixture was then analyzed directly by LC/MS. Analysis of labeling outcomes using LC/MS was performed either by extracted ion chromatogram intensities (method A) or by integrating the area under the peaks associated with peptide content (method B). These values were totaled, and estimated percentages were assigned according to relative intensities of peaks or ion counts.
# Labeling of Lysozyme with Pyridinium Salt 2a (Lysozyme-2a Conjugate). Labeling of lysozyme (14.3 kDa) with the pyridinium salt 2a was performed by following general procedure B using the following solutions: lysozyme (27 μL, 182 μM, 10 μM final concentration), pyridinium salt 2a (200 μL, 500 μM, 200 μM final concentration), NH4OAc (100 μL, 100 mM, pH=6.9, 20 mM final concentration), glutathione (15 μL, 10 mM, 300 μM final concentration), and water (158 μL) with a 100% intensity irradiation time of 60 minutes. The reaction mixture was analyzed directly by LC/MS using method A and was estimated to have proceeded in >95% conversion and a 10.9:1 mono:di labeled ratio and 10% glutathionylation of all unlabeled and labeled protein content was observed.
# Labeling of Lysozyme with Pyridinium Salt 2b (Lysozyme-2b Conjugate). Labeling of lysozyme (14.3 kDa) with the pyridinium salt 2b was performed by following general procedure Busing the following solutions: lysozyme (19 μL, 262 μM, […]), 2b (181 μL, 554 μM, 200 μM final concentration), NH4OAc (50 μL, 200 mM, pH=6.9, 20 mM final concentration), glutathione (50 μL, 3 mM, 300 μM final concentration), and water (200 μL) with a 100% intensity irradiation time of 10 minutes. The reaction mixture was analyzed directly by LC/MS using method A and was estimated to have proceeded with 83% conversion. […]
# Labeling of Lysozyme with Pyridinium Salt 2c (Lysozyme-2c Conjugate). […] The reaction mixture was analyzed directly by LC/MS using method A and was estimated to have proceeded with 85% conversion and a 3.7:1 mono:di labeled ratio and 10% glutathionylation of all protein content was observed. […]
# [2] = test system: HEK293T cells; assay: In-situ chemoproteomic tryptophan profiling of live HEK293T cells; type: cell-based, human
# Procedure: Cell culture and in-situ tryptophan probe treatment: Cell lines were cultured at 37° C. with 5% CO2. Human embryonic kidney 293 cells expressing a mutant version of the SV40 large T antigen (HEKT293T cells) were grown in Dulbecco's Modified Eagle Medium (DMEM, Gibco) supplemented with 10% fetal bovine serum and 1% penicillin/streptomycin. For in-situ labeling, cells were grown to 90% confluence, washed with Dulbecco's phosphate buffered saline (DPBS), treated with 100× stocks of the tryptophan probes (the pyridinium salts) in OptiMem (GibCo) to generate final concentrations (0 μM, 1 μM, 10 μM, and 100 μM) in 1% dimethylsulfoxide (DMSO). Cells were incubated for 1 hour at 37° C. with 5% CO2 followed by photo-activation at the respective wavelengths for 20 minutes at 4° C. Cells were harvested with a cell scraper, washed 3× with DPBS, and pellets were stored at −80° C. until further use. The following light sources were used for photo-activation:
# In-situ tryptophan probe sample processing for peptide-level characterization: Cell pellets were lysed via sonication (QSonica) at 50% amplitude, 2 seconds ON, 3 seconds OFF, 30 seconds in 40 mM HEPES pH 7.5 (4-(2-hydroxyethyl)-1-piperazineethanesulfonic acid), 1.5 mM magnesium chloride (MgCl2), 1% Sodium dodecyl sulfate (SDS), 0.8% NP-40 (also known as nonyl phenoxypolyethoxylethanol), and 1× protease inhibitors (Thermo). Protein concentration was determined by BCA (Pierce). 400 μg protein lysate were taken for copper-catalyzed azide-alkyne cycloaddition (CuAAC) reactions with 100 μM of the acid cleavable DAPBS Biotin Alkyne (Click Chemistry Tools), 250 μM copper sulfate (CuSO4), 500 μM BTTP (C20H34N10O2) (Click Chemistry Tools), and 2.5 mM ascorbate and incubated for 60 minutes at R.T. Samples were precipitated with methanol:chloroform and re-suspended in 50 mM HEPES pH 8.0 containing 1% RapiGest SF (Waters). The samples were reduced with 10 mM dithiothreitol (DTT) (Pierce) and alkylated with 25 mM iodoacetamide (Pierce). The samples were diluted down to 0.1% RapiGest SF and treated with 4 μg Trypsin/LysC (Promega) at 37° C. for 16 hours. The digested peptides were than labeled with isobaric tandem mass tag (TMT) reagents (Thermo) as specified by the manufacturer. The labeled peptides were then combined, concentrated to remove acetonitrile, and re-suspended in 50 mM HEPES pH 8.0 containing 0.2% SDS. […]
# Quantitative proteomics by two-dimensional nano liquid chromatography-tandem mass spectrometry (nLC-MS/MS): For protein-level characterization, the TMT-labeled sample were reconstituted in 0.1% formic acid (FA)/2% acetonitrile for offline high-pH reversed phase separation (RP10) using a Dionex UltiMate 3000 high-performance liquid chromatography (HPLC) system with fraction collection using Chromeleon v.6.8 (Thermo) software. […]
structure (smiles),measurement,setting,value
"COc1ccc2cc(-c3cc(C)[n+](N(C)C(=O)OCCCCCCN=[N+]=[N-])c(C)c3)ccc2c1 [pyridinium salt 2d, 1-((((6-azidohexyl)oxy)carbonyl)(methyl)amino)-4-(6-methoxynaphthalen-2-yl)-2,6-dimethylpyridin-1-ium tetrafluoroborate]",labeling rate compared to pyridinium salt 2a,[1],enhance rates
same,Trp-modified peptide fragments detected showing dose response behavior,"[2]; about 100 μM probe, 60 min 37° C., 440 nm 20 min 4° C., peptide-level enrichment",290
same,plasma membrane crossing / subcellular penetration,[2]; subcellular localization of modified proteins (UniProt),readily crosses the plasma membrane
same,selectivity for tryptophan,"[2]; taking relative amino acid frequency in human proteins into account, FIG. 19B",about 82%
same,Western validation of NPM1 and PARP1 in enriched protein mixtures,"[2]; varying concentrations, with and without blue light, protein-level enrichment",found to contain both proteins
